Source: patent publication US20230416275A1, “MODULATORS OF CYSTIC FIBROSIS TRANSMEMBRANE CONDUCTANCE REGULATOR” (VERTEX PHARMACEUTICALS INCORPORATED, priority 2020, published 2023)
Like-named read-outs stand apart in the source and are kept apart here.

Columns and labels:
[1] = biological target: CFTR-mediated chloride transport in human intestinal epithelial enteroid cells (Homo sapiens, UniProt P13569); assay: Membrane potential dye, Enteroid Assay A; assay type: cell-based; details: for Ent. A Max Activity (%): % of chloride transport of triple combination control (3 μM N-[(6-amino-2-pyridyl)sulfonyl]-6-(3-fluoro-5-isobutoxy-phenyl)-2-[(4S)-2,2,4-trimethylpyrrolidin-1-yl]pyridine-3-carboxamide, 3 μM tezacaftor, 300 nM acute ivacaftor); for EC50: enteroid cells, 18-24 hours incubation, acute 10 μM forskolin and 300 nM ivacaftor, read-out: Ent. A EC50
Procedure, shortened: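 Enteroids seeded at 5000 cells/well were exposed to test compound in IEMM for 18-24 h at 37 °C, then loaded with methyl oxonol membrane potential dye. Chloride transport was triggered in chloride-free buffer with 10 μM forskolin, 100 μM IBMX and 300 nM Compound III, read by fluorescence for 15 min and expressed as % of a triple-combination control.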

F508del in NIH 3T3 cells = biological target: T1, F508del in NIH 3T3 cells (Homo sapiens, UniProt P13569, DEL508-508); assay: 3T3 assay: membrane potential optical assay for F508del correction; assay type: cell-based, mouse; details: for EC50: F508del NIH 3T3 cells, compound incubation 18-24 hours at 37° C., forskolin activation, read-out: 3T3 EC50; for Emax: NIH3T3, F508del NIH 3T3 cells, efficacy compared to lumacaftor in combination with acutely added 300 nM Ivacaftor, read-out: 3T3 Max Activity (%)
T1 construct: expressed in transfected cells
Procedure, shortened: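 NIH3T3 mouse fibroblasts stably expressing F508del incubated with corrector compounds at a range of concentrations for 16-24 h at 37 °C, then loaded with voltage-sensing redistribution dye. Single addition of forskolin with Cl− gradient (chloride-free gluconate bath vs. NaCl bath, pH 7.4); membrane potential change read by fluorescence on FLIPR.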

Sequence of CFTR-mediated chloride transport in human intestinal epithelial enteroid cells (P13569 with tags, fused parts or gaps DEL508-508): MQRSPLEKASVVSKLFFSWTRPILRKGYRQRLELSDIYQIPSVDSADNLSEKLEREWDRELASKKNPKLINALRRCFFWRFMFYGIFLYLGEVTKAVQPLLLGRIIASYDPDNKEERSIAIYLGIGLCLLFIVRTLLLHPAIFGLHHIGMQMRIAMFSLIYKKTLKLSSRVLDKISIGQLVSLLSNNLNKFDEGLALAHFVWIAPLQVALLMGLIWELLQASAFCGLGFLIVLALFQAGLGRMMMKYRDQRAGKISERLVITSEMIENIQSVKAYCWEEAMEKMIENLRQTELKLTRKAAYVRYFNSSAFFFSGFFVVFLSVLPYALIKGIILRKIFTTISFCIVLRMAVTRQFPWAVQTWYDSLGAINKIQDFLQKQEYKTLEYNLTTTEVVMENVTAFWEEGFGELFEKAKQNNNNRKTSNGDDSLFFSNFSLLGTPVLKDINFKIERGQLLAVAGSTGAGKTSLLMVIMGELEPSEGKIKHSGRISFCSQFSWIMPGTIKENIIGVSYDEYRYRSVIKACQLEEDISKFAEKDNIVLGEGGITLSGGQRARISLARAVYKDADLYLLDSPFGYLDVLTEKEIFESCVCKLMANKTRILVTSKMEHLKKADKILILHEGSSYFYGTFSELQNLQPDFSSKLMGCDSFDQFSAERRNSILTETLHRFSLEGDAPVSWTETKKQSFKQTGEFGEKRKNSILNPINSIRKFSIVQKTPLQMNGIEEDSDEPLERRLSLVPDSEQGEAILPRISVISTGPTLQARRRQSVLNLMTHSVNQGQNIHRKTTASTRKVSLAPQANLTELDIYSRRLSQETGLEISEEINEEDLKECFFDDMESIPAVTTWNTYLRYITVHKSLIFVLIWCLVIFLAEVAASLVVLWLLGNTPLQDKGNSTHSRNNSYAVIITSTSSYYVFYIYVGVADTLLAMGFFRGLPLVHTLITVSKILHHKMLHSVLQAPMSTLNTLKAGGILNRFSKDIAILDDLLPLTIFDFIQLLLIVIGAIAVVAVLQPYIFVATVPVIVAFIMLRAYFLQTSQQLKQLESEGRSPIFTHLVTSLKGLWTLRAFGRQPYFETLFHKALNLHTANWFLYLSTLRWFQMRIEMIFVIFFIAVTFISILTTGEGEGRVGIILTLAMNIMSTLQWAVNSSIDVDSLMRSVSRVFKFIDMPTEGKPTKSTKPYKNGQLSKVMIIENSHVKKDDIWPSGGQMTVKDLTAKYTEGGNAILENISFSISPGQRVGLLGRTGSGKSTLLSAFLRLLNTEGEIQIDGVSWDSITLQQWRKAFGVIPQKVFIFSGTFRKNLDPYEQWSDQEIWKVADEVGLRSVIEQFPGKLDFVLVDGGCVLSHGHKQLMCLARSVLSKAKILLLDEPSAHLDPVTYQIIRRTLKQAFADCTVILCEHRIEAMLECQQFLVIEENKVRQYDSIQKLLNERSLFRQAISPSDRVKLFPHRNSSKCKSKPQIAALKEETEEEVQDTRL
T1 sequence (P13569 with tags, fused parts or gaps DEL508-508): as above

EC50 [1] | EC50 (F508del in NIH 3T3 cells) | Emax (F508del in NIH 3T3 cells) | SMILES | Ent. A Max Activity (%) [1] | ring closure, yield after HPLC (from Cc1cccc(C)c1-c1cc(OC2CC(C(=O)Oc3c(F)c(F)c(F)c(F)c3F)CN(C(=O)OC(C)(C)C)C2)nc(NS(=O)(=O)c2cncc(N)c2)n1, amide bond, 14-membered ring, none (thermal, OPfp ester), NMP, 12.1 mM, 140.0 °C, 5.0 h, 5 steps) | ring closure, yield after HPLC (from Cc1cccc(C)c1-c1cc(Oc2ccc(Cl)c(C(=O)O)c2)nc(NS(=O)(=O)c2cccc(N)c2)n1, amide bond, 14-membered ring, HATU/DIEA, 1.0 h) | ring closure, yield after HPLC (from Cc1cccc(C)c1-c1cc(Oc2cccc(CCCC(=O)O)c2)nc(NS(=O)(=O)c2cccc(N)c2)n1, amide bond, 17-membered ring, HATU/DIEA, DMF, 56.8 mM, 0.033 h) | ring closure, yield after HPLC (amide bond, 16-membered ring, none (thermal, isolated OPfp ester), NMP, 67.6 mM, 100.0 °C, 4 steps) | ring closure, yield after HPLC (amide bond, 15-membered ring, HATU/DIEA, DMF, 5 steps) | ring closure, yield after HPLC (amide bond, 14-membered ring, HATU/DIEA, DMF, 130.0 mM) | ring closure, yield after HPLC (from tert-butyl 3,5-dihydroxypiperidine-1-carboxylate + 3-(bromomethyl)-N-[4-chloro-6-(2,6-dimethylphenyl)pyrimidin-2-yl]benzenesulfonamide?, snar bond, 14-membered ring, NaH, DMF, 50.0 mM, 2 steps)
1 to 3 µM | < 1 µM | > 60% | Cc1ccc2cc1Oc1cc(-c3c(C)cccc3C)nc(n1)NS(=O)(=O)c1cccc(c1)NC(=O)CC2 [Compound 66, 5-(2,6-Dimethylphenyl)-22-methyl-9,9-dioxo-2-oxa-9λ^6-thia-6,8,15,25-tetraazatetracyclo[17.3.1.13,7.110,14]pentacosa-1(22),3,5,7(25),10(24),11,13,19(23),20-nonaen-16-one] | +++ (+++ is >60%) | – | – | – | 6% | – | – | –
– | < 1 µM | > 60% | Cc1cccc(C)c1-c1cc2nc(n1)NS(=O)(=O)c1cccc(c1)NC(=O)CCCCO2 [Compound 72, 6-(2,6-Dimethylphenyl)-2,2-dioxo-9-oxa-2λ^6-thia-3,5,15,21-tetrazatricyclo[14.3.1.14,8]henicosa-1(20),4(21),5,7,16,18-hexaen-14-one] | – | – | – | – | – | 3% | – | –
3 to 30 µM | < 1 µM | > 60% | Cc1cccc(C)c1-c1cc2cc(n1)NS(=O)(=O)c1cccc(c1)NC(=O)c1cccc(c1)O2 [Compound 77, 5-(2,6-Dimethylphenyl)-9,9-dioxo-2-oxa-9λ^6-thia-6,8,15-triazatetracyclo[15.3.1.13,7.110,14]tricosa-1(20),3,5,7(23),10(22),11,13,17(21),18-nonaen-16-one] | ++ (++ is 30-60%) | – | – | – | – | – | 60% | –

Further lines, the molecule ahead of its results:

SMILES | EC50 [1] | EC50 (F508del in NIH 3T3 cells) | Emax (F508del in NIH 3T3 cells) | Ent. A Max Activity (%) [1] | ring closure, yield after HPLC (from Cc1cccc(C)c1-c1cc(OC2CC(C(=O)Oc3c(F)c(F)c(F)c(F)c3F)CN(C(=O)OC(C)(C)C)C2)nc(NS(=O)(=O)c2cncc(N)c2)n1, amide bond, 14-membered ring, none (thermal, OPfp ester), NMP, 12.1 mM, 140.0 °C, 5.0 h, 5 steps) | ring closure, yield after HPLC (from Cc1cccc(C)c1-c1cc(Oc2ccc(Cl)c(C(=O)O)c2)nc(NS(=O)(=O)c2cccc(N)c2)n1, amide bond, 14-membered ring, HATU/DIEA, 1.0 h) | ring closure, yield after HPLC (from Cc1cccc(C)c1-c1cc(Oc2cccc(CCCC(=O)O)c2)nc(NS(=O)(=O)c2cccc(N)c2)n1, amide bond, 17-membered ring, HATU/DIEA, DMF, 56.8 mM, 0.033 h) | ring closure, yield after HPLC (amide bond, 16-membered ring, none (thermal, isolated OPfp ester), NMP, 67.6 mM, 100.0 °C, 4 steps) | ring closure, yield after HPLC (amide bond, 15-membered ring, HATU/DIEA, DMF, 5 steps) | ring closure, yield after HPLC (amide bond, 14-membered ring, HATU/DIEA, DMF, 130.0 mM) | ring closure, yield after HPLC (from tert-butyl 3,5-dihydroxypiperidine-1-carboxylate + 3-(bromomethyl)-N-[4-chloro-6-(2,6-dimethylphenyl)pyrimidin-2-yl]benzenesulfonamide?, snar bond, 14-membered ring, NaH, DMF, 50.0 mM, 2 steps)
Cc1cccc(C)c1-c1cc2nc(n1)NS(=O)(=O)c1cncc(c1)NC(=O)C1CC(CN(C(=O)OC(C)(C)C)C1)O2 (racemic) [Compound 14, tert-Butyl 19-(2,6-dimethylphenyl)-8,15,15-trioxo-2-oxa-15λ^6-thia-5,9,12,16,18,21-hexaazatetracyclo[15.3.1.13,7.110,14]tricosa-1(21),10,12,14(22),17,19-hexaene-5-carboxylate] | < 1 µM | – | – | + (+ is <30%) | 1% | – | – | – | – | – | –
Cc1cccc(C)c1-c1cc2nc(n1)NS(=O)(=O)c1cccc(c1)NC(=O)c1cc(ccc1Cl)O2 [Compound 55, 18-chloro-5-(2,6-dimethylphenyl)-9,9-dioxo-2-oxa-9λ^6-thia-6,8,15,23-tetraazatetracyclo[15.3.1.13,7.110,14]tricosa-1(21),3,5,7(23),10(22),11,13,17,19-nonaen-16-one] | 1 to 3 µM | < 1 µM | > 60% | +++ (+++ is >60%) | – | 38% | – | – | – | – | –
Cc1cccc(C)c1-c1cc2nc(n1)NS(=O)(=O)c1cccc(c1)NC(=O)CCCc1cccc(c1)O2 [Compound 65, 5-(2,6-Dimethylphenyl)-9,9-dioxo-2-oxa-9λ^6-thia-6,8,15,26-tetraazatetracyclo[18.3.1.13,7.110,14]hexacosa-1(23),3,5,7(26),10(25),11,13,20(24),21-nonaen-16-one] | 1 to 3 µM | < 1 µM | > 60% | +++ (+++ is >60%) | – | – | 28% | – | – | – | –
Cc1cccc(C)c1-c1cc2nc(n1)NS(=O)(=O)c1cccc(c1)COC1CC(CN(C(=O)OC(C)(C)C)C1)O2 (stereo not shown) [Compound 119, tert-Butyl 19-(2,6-dimethylphenyl)-15,15-dioxo-2,8-dioxa-15λ^6-thia-5,16,18,21-tetraazatetracyclo[15.3.1.13,7.110,14]tricosa-1(21),10,12,14(22),17,19-hexaene-5-carboxylate] | – | – | – | + (+ is <30%) | – | – | – | – | – | – | 15%
